Measurements published in ChEMBL document CHEMBL1201862, “PubChem BioAssay data set” (2004).
“And” between values parts separate entries of the source, which are not always exact repeats. Equal entries are not always repeated.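 Protocol summary: plate cells (96-well), add compound at 5 concentrations, incubate 48 h, interpolate endpoints linearly. At the GI50, growth is halved.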 The source made the active and inactive calls. Rule as the data show it: active = GI50 up to about 1.1 µM and inactive = higher.

Key:
Test in all cases: DTP human tumour cell line panel, 48 h
[1] = system: A498
[2] = system: CAKI-1
[3] = system: HOP-92
[4] = system: IGROV-1
[5] = system: KM12
[6] = system: MOLT-4
[7] = system: NCI-H226
[8] = system: OVCAR-5
[9] = system: RXF 393
[10] = system: SF-268
[11] = system: SF-539
[12] = system: SK-OV-3
[13] = system: SN12C
[14] = system: UACC-257
[15] = system: UACC-62
[16] = system: HL-60

C=C(C)[C@H]1CC[C@@]2(C)C(C1)[C@H](C)CC[C@@H]2O (some centres not stated)
GI50 [1]: > 100 µM (inactive) | GI50 [2]: > 100 µM (inactive) | GI50 [3]: > 100 µM (inactive) | GI50 [4]: > 100 µM (inactive) | GI50 [5]: > 100 µM (inactive) | GI50 [6]: 88.3 µM (inactive) | GI50 [7]: > 100 µM (inactive) | GI50 [8]: > 100 µM (inactive) | GI50 [9]: > 100 µM (inactive) | GI50 [10]: > 100 µM (inactive) | GI50 [11]: > 100 µM (inactive) | GI50 [12]: > 100 µM (inactive) | GI50 [13]: > 100 µM (inactive) | GI50 [14]: > 100 µM (inactive) | GI50 [15]: > 100 µM (inactive)

Cc1ccc(S(=O)(=O)ON=C2CC(c3ccccc3)N(C)C(c3ccccc3)C2)cc1 (configuration not stated)
GI50 [1]: 24.3 µM (inactive) | GI50 [2]: 24.6 µM (inactive) and 15.6 µM (inactive) | GI50 [3]: 15.9 µM (inactive) and 15.3 µM (inactive) | GI50 [4]: 23.5 µM (inactive) and 21.4 µM (inactive) | GI50 [5]: 16.4 µM (inactive) | GI50 [6]: 17.9 µM (inactive) and 20.6 µM (inactive) | GI50 [7]: 28.7 µM (inactive) and 23.6 µM (inactive) | GI50 [8]: 20.8 µM (inactive) | GI50 [9]: 20.2 µM (inactive) and 18.8 µM (inactive) | GI50 [10]: 22.8 µM (inactive) and 23.4 µM (inactive) | GI50 [11]: 17.1 µM (inactive) | GI50 [12]: 22.5 µM (inactive) and 21.8 µM (inactive) | GI50 [13]: 23.6 µM (inactive) | GI50 [14]: 18.9 µM (inactive) and 19.3 µM (inactive) | GI50 [15]: 16.1 µM (inactive)

C=CCNC1=NC(=O)C(CC(=O)Nc2ccc([N+](=O)[O-])cc2[N+](=O)[O-])S1 (configuration not stated)
GI50 [1]: > 100 µM (inactive) | GI50 [2]: 83.8 µM (inactive) | GI50 [16]: 52.5 µM (inactive) | GI50 [3]: 85.7 µM (inactive) | GI50 [4]: > 100 µM (inactive) | GI50 [5]: > 100 µM (inactive) | GI50 [6]: > 100 µM (inactive) | GI50 [7]: > 100 µM (inactive) | GI50 [8]: > 100 µM (inactive) | GI50 [9]: > 100 µM (inactive) | GI50 [10]: > 100 µM (inactive) | GI50 [11]: > 100 µM (inactive) | GI50 [12]: > 100 µM (inactive) | GI50 [13]: > 100 µM (inactive) | GI50 [14]: > 100 µM (inactive) | GI50 [15]: > 100 µM (inactive)

O=C(O)c1ccc(C2=Cc3cc(Cl)ccc3OC2)cc1
GI50 [1]: > 100 µM (inactive) | GI50 [2]: > 100 µM (inactive) | GI50 [16]: > 100 µM (inactive) | GI50 [3]: > 100 µM (inactive) | GI50 [4]: > 100 µM (inactive) | GI50 [5]: > 100 µM (inactive) | GI50 [6]: > 100 µM (inactive) | GI50 [7]: > 100 µM (inactive) | GI50 [8]: > 100 µM (inactive) | GI50 [9]: > 100 µM (inactive) | GI50 [10]: > 100 µM (inactive) | GI50 [11]: > 100 µM (inactive) | GI50 [12]: > 100 µM (inactive) | GI50 [13]: > 100 µM (inactive) | GI50 [14]: > 100 µM (inactive) | GI50 [15]: > 100 µM (inactive)

O=C1c2ccccc2N2OC3C4CCC(C4)C3C12c1ccccc1 (configuration not stated)
GI50 [1]: > 100 µM (inactive) | GI50 [16]: 33.5 µM (inactive) | GI50 [3]: 40.8 µM (inactive) | GI50 [4]: > 100 µM (inactive) | GI50 [6]: 32.1 µM (inactive) | GI50 [7]: > 100 µM (inactive) | GI50 [9]: 16.5 µM (inactive) | GI50 [10]: > 100 µM (inactive) | GI50 [11]: > 100 µM (inactive) | GI50 [12]: > 100 µM (inactive) | GI50 [13]: 86.9 µM (inactive) | GI50 [14]: 70 µM (inactive) | GI50 [15]: 93.8 µM (inactive)

Cc1ccccc1-c1c(N)nc(N)nc1C(=O)Nc1nccs1
GI50 [1]: > 100 µM (inactive) | GI50 [2]: > 100 µM (inactive) | GI50 [16]: > 100 µM (inactive) | GI50 [3]: > 100 µM (inactive) | GI50 [4]: > 100 µM (inactive) | GI50 [5]: > 100 µM (inactive) | GI50 [6]: > 100 µM (inactive) | GI50 [7]: > 100 µM (inactive) | GI50 [8]: > 100 µM (inactive) | GI50 [9]: > 100 µM (inactive) | GI50 [10]: > 100 µM (inactive) | GI50 [11]: > 100 µM (inactive) | GI50 [12]: > 100 µM (inactive) | GI50 [13]: > 100 µM (inactive) | GI50 [14]: > 100 µM (inactive) | GI50 [15]: > 100 µM (inactive)

COc1cc(/C=C\c2ccc(O)cc2)cc(OC)c1OC
GI50 [1]: 29.4 µM (inactive) | GI50 [2]: 4.71 µM (inactive) | GI50 [16]: 10.3 µM (inactive) | GI50 [3]: 0.293 µM (active) | GI50 [4]: 5.24 µM (inactive) | GI50 [5]: 0.883 µM (active) | GI50 [6]: 4.24 µM (inactive) | GI50 [7]: 22.3 µM (inactive) | GI50 [8]: 98.9 µM (inactive) | GI50 [9]: 3.78 µM (inactive) | GI50 [10]: 0.555 µM (active) | GI50 [11]: 2.82 µM (inactive) | GI50 [12]: 3.88 µM (inactive) | GI50 [13]: 4.9 µM (inactive) | GI50 [14]: 17.3 µM (inactive) | GI50 [15]: 3.37 µM (inactive)
